Source: patent US20240423961A1, “1H-1,2,3-TRIAZOLE-4-CARBOXYLIC ACIDS FOR TREATMENT OF HYPEROXALURIA AND KIDNEY STONES” (CANTERO THERAPEUTICS, INC., priority 2021, published 2024)

What was measured:
glycolate oxidase (GO) [1] = molecular target: T1, glycolate oxidase (GO) (Homo sapiens, UniProt Q9UJM8); assay: Pharmacokinetic-pharmacodynamic (PK/PD) modeling of GO inhibition; conditions: PK/PD modeling of Phase 1 data
T1 construct: healthy adult volunteers received single doses of Compound 1a; from tissue; host or cells: liver of healthy adult human volunteers (in vivo, Phase 1 study)
T1 sequence (Q9UJM8 1-370): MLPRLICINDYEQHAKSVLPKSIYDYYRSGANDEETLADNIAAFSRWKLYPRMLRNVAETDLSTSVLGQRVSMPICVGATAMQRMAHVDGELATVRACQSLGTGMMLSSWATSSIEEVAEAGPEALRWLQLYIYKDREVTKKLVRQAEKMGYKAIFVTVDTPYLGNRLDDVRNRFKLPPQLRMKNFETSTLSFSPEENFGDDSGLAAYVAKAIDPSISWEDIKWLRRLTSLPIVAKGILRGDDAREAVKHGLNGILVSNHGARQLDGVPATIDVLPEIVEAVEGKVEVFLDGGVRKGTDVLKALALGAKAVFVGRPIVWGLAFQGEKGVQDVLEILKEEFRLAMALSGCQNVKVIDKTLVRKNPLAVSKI
Excerpt: This study provides dosing and safety information for Compound 1a in patients with PH1 and recurrent stone formers with hyperoxaluria due to hepatic overproduction of oxalate. Pharmacokinetic data supports once daily administration of Compound 1a and rapid onset of action. […] Details of the study are presented in Example 2.

[2] = Phase 1 SAD/MAD study: safety and tolerability (adverse events, vital signs, ECG, laboratory tests); assay type: in vivo, human
Experimental: A Phase 1 clinical study is performed to assess the safety and dosing of Compound 1a. This Phase 1 study consists of two parts. In Part A, healthy adults randomized 3:1 (active:placebo) receive a single dose of orally administered Compound 1a or matching placebo in six (6) ascending dose groups. In Part B, healthy adults randomized 3:1 (active:placebo) received multiple doses of orally administered Compound 1a or matching placebo in six (6) ascending dose groups. Safety and tolerability were assessed by the incidence of adverse events, vital signs, electrocardiograms, and clinical laboratory tests. Pharmacokinetics and pharmacodynamics (changes in plasma and urine glycolate) were measured using validated bioanalytical assays.
Study Design: The study was approved by the Advarra Institutional Review Board (Columbia, MD). All participants provided written informed consent. The trial was conducted at a single center (Celerion, Tempe, Arizona) according to the Good Clinical Practice guidelines of the International Conference on Harmonization and the World Health Organization Declaration of Helsinki. The study was a randomized, double-blind, placebo-controlled, single and multiple ascending dose study. The primary objective of the study was to evaluate the safety and tolerability of single and multiple doses of Compound 1a administered to healthy adult volunteers. The secondary objectives were to characterize the pharmacokinetics (PK) of Compound 1a and to describe the pharmacodynamic (PD) properties in healthy adult volunteers. The study also evaluated the effect of food on the PK of Compound 1a.
Subject disposition: Six cohorts of 6 to 8 subjects each (N=up to 48) were administered single doses of 40, 120, 360, 1,000, 2,000, and 3,000 mg of Compound 1a in Part A under fasting conditions. Following a 2-week washout, subjects in the 1,000 mg cohort were administered a second 1,000 mg single dose following a high-fat breakfast. Six cohorts of 8 healthy subjects each were administered multiple doses of 75 mg […] (qd), 125 mg every 12 hours (q12 h), 500 mg q12 h, 500 mg qd, 750 mg qd, and 1,000 mg qd for 7 days in the MAD Part B (FIG. 1).

glycolate oxidase (GO) [3] = molecular target: T1, glycolate oxidase (GO); assay: Phase 1 SAD/MAD study: plasma glycolate as measure of target engagement; assay type: in vivo
Experimental: Pharmacodynamics: Acidified human K2-EDTA plasma samples were analyzed for oxalic acid and glycolic acid by a validated method over a range of 8.00 to 120 μM for oxalic acid and 5.00 to 625 μM for glycolic acid based on the analysis of 50 μL of sample. Human plasma containing oxalic acid, glycolic acid and internal standards, ^13C2-oxalic acid and D2-glycolic acid, was derivatized after protein precipitation then extracted using liquid-liquid extraction and analyzed by a Sciex API 4000 LC-MS-MS equipped with an HPLC column. The peak area of the m/z 224.1→152.1 oxalic acid product ion was measured against the peak area of the m/z 226.1→152.1 13C2-oxalic acid internal standard product ion. The peak area of the m/z 210.1→107.0 glycolic acid product ion was measured against the peak area of the m/z 212.1→107.0 D2-glycolic acid internal standard product ion. Quantitation was performed using a weighted 1/x2 linear least squares regression analysis generated from calibration standards prepared on the day of extraction.
Pharmacodynamics of Compound 1a: As a measure of target engagement, plasma glycolate levels were assessed in Part A and Part B. In Part A, healthy adult volunteers received single doses of Compound 1a at 40, 120, 360, 1,000, 2,000, and 3,000 mg with increases in plasma glycolate observed (FIG. 3A). At all doses, mean maximal plasma glycolate concentrations exceeded the upper limit of normal (ULN) of 14 μM, reaching a mean maximum concentration of >90 μM at doses above 1,000 mg, which was sustained for 24 hours. Median time to recovery (plasma glycolate less than or equal to ULN) after a single dose was less than 72 hours.
In Part B, healthy adult volunteers received multiple doses of Compound 1a at 75 mg qd, 125 mg q12 h, 500 mg q12 h, 500 mg qd, 750 mg qd, and 1000 mg qd. As with Part A, mean maximal plasma glycolate concentrations exceeded the ULN at all doses on day 1 to a range of 50 to 100 μM and further increased on day 7 to a range of 100 to 200 μM.

[4] = Part A single ascending dose, 40 mg (n = 7)
[5] = Part A single ascending dose, 120 mg (n = 8)
[6] = Part A single ascending dose, 360 mg (n = 6)
[7] = Part A single ascending dose, 1,000 mg (n = 8)
[8] = Part A single ascending dose, 2,000 mg (n = 8)
[9] = Part B multiple ascending dose, 125 mg q12 h (n = 8)
[10] = Part B multiple ascending dose, 500 mg q12 h (n = 8)
[11] = Part B multiple ascending dose, 500 mg qd (n = 8)
[12] = Part A, single doses above 1,000 mg

Compound: O.O=C([O-])c1nn[nH]c1Oc1ccc(-c2ccc(C3CC(F)(F)C3)cc2)cc1.[Na+] [Compound 1a, sodium 5-((4′-(3,3-difluorocyclobutyl)-[1,1′-biphenyl]-4-yl)oxy)-1H-1,2,3-triazole-4-carboxylate monohydrate]
- inhibition of GO (glycolate oxidase (GO) [1]): up to 97%
- AEs leading to study discontinuation ([2]; Part A and Part B): no AEs leading to study discontinuation
- dose-limiting toxicities ([2]; Part A and Part B): No dose-limiting toxicities were observed
- intensity of AEs ([2]; Part A and Part B): all were mild to moderate in intensity
- post dose electrocardiogram findings ([2]; Part A and Part B): nor were there clinically important post dose electrocardiogram findings
- safety laboratory tests ([2]; Part A and Part B): no clinically significant changes or trends observed
- serious or severe AEs ([2]; Part A and Part B): No serious or severe AEs were reported
- AEs [2, 4]: 10
- SAEs [2, 4]: 0
- AEs [2, 5]: 1
- SAEs [2, 5]: 0
- AEs [2, 6]: 0
- SAEs [2, 6]: 0
- AEs [2, 7]: 4
- SAEs [2, 7]: 0
- AEs [2, 8]: 3
- SAEs [2, 8]: 0
- AEs [2, 9]: 6
- SAEs [2, 9]: 0
- AEs [2, 10]: 12
- SAEs [2, 10]: 0
- AEs [2, 11]: 1
- SAEs [2, 11]: 0
- tolerability ([2]; single doses up to 3,000 mg and multiple doses up to 2,000 mg per day (1,000 mg qd)): well tolerated
- time to inhibition of glycolate oxidase (GO) with increased plasma glycolate concentrations (glycolate oxidase (GO) [3]; FIG. 3 legend): ≤ 2 h
- mean maximal plasma glycolate concentrations (exceeded ULN) (glycolate oxidase (GO) [3]; Part A, all single doses 40 to 3,000 mg): > 14 µM
- duration for which mean maximum plasma glycolate concentration was sustained (glycolate oxidase (GO) [3]; [12]): 24 h
- mean maximum plasma glycolate concentration (glycolate oxidase (GO) [3]; [12]): > 90 µM
- levels of plasma glycolate compared with lumasiran (glycolate oxidase (GO) [3]; Part B, all doses): significantly higher than those observed with lumasiran at 3 mg/kg or 6 mg/kg
- Median time to recovery (plasma glycolate less than or equal to ULN) (glycolate oxidase (GO) [3]; after a single dose): less than 72 hours
- plasma glycolate concentrations at steady state (glycolate oxidase (GO) [3]; steady state, multiple doses): comparable to those measured in case reports of individuals with germline HAO1 knockout
